One may read the IC50 as the point on the concentration scale where inhibition reaches its midpoint.

A value given as a limit tells only on which side of the number the result lay.

This is an account of results in patent publication US10865191B2, “Heterocyclic compounds useful as modulators of TNF alpha” (BRISTOL-MYERS SQUIBB COMPANY, priority 2015, dated 2020).

Sequence of TNFα (P01375 77-233 limits assumed): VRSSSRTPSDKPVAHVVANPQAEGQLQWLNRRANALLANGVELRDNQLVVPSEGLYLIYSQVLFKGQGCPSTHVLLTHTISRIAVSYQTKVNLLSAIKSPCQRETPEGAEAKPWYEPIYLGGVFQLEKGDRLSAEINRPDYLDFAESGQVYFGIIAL

One experiment concerns the target TNFα (Homo sapiens, UniProt P01375). The experiment is described as follows: TNF induced HEK-Blue assay (NF-kB-driven secreted alkaline phosphatase reporter). Format: cell-based. Particulars: TNF induced HEK-Blue assay IC50 value, TNFα 0.5 ng/mL, HEK-Blue-CD40L cells, 18 h. In short, it runs like this: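 HEK-Blue-CD40L cells (NF-kB-driven SEAP reporter), 20,000/well, added after 30 min pre-incubation of compound (0.004–25 μM final) with TNFα 0.5 ng/mL final at 37 °C; 18 h incubation. SEAP read with QUANTI-Blue at 620 nm; IC50 from 4-parameter logistic fit, normalized to unstimulated and stimulated DMSO controls.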
Turning to `CC(=O)N1CCC[C@@H](C(C)Nc2c(Cl)cnc3ccc(-c4cnc(C(C)(C)O)nc4)cc23)C1` (single isomer, unassigned) [Example 108], the half-maximal inhibitory concentration (IC50) lay within 1 to 10 µM.

The same experiment, now with this note: TNFα 0.5 ng/mL, HEK-Blue-CD40L cells, 18 h; read-out: TNF induced HEK-Blue assay IC50 value.
As for `CCC(Nc1c(Cl)cnc2ccccc12)c1ccccc1F` (stereo not shown) [Example 453, 3-chloro-N-(1-(2-fluorophenyl)propyl)quinolin-4-amine], the IC50 lay in the range of 1 to 10 µM.

On to `Cc1nc2cc(F)c(-c3cnc(C(C)(C)O)nc3)cc2c(N[C@H](C)c2cccc(C#N)c2)c1Cl` [Example 383, (R)-3-(1-((3-chloro-7-fluoro-6-(2-(2-hydroxypropan-2-yl)pyrimidin-5-yl)-2-methylquinolin-4-yl)amino)ethyl)benzonitrile], for which the IC50 is under 1 µM.

Consider `CCC(Nc1c(Cl)cnc2ccc(-c3cnc(C(C)(C)O)nc3)cc12)c1nc(C(=O)O)ccc1F` (stereo not shown) [Example 128, 6-(1-((3-chloro-6-(2-(2-hydroxypropan-2-yl)pyrimidin-5-yl)quinolin-4-yl)amino)propyl)-5-fluoropicolinic acid], for which the IC50 fell in the range of 1 to 10 µM.

Take `CNc1ccncc1-c1ccc(F)c([C@@H](C)Nc2c(Cl)cnc3ccccc23)c1` [Example 523, (R)-3-chloro-N-(1-(2-fluoro-5-(4-(methylamino)pyridin-3-yl)phenyl)ethyl)quinolin-4-amine]: the IC50 is under 1 µM.

As to `COc1ncc(-c2ccc(F)c([C@@H](C)Nc3c(Cl)cnc4ccccc34)c2)cc1N` [Example 521, (R)—N-(1-(5-(5-amino-6-methoxypyridin-3-yl)-2-fluorophenyl)ethyl)-3-chloroquinolin-4-amine], the IC50 was under 1 µM.

With `CC(Nc1c(Cl)cnc2cc(F)c(-c3cnc(N4CCC(C(=O)O)CC4)nc3)cc12)c1ccccc1F` (single isomer, unassigned) [Example 244, 1-(5-(3-chloro-7-fluoro-4-((1-(2-fluorophenyl)ethyl)amino)quinolin-6-yl)pyrimidin-2-yl)piperidine-4-carboxylic acid], the IC50 was under 1 µM.

As to `C[C@@H](Nc1c(Cl)cnc2ccccc12)c1cc(-c2ccnc3[nH]ccc23)ccc1F` [Example 525, (R)-3-chloro-N-(1-(2-fluoro-5-(1H-pyrrolo[2,3-b]pyridin-4-yl)phenyl)ethyl) quinolin-4-amine], the IC50 is 1 to 10 µM.

Consider `Cc1nc2ccc(-c3cnc(C(C)(C)O)nc3)cc2c(N[C@H](C)c2cc(N)ccc2F)c1Cl` [Example 360, (R)-2-(5-(4-((1-(5-amino-2-fluorophenyl)ethyl)amino)-3-chloro-2-methylquinolin-6-yl)pyrimidin-2-yl)propan-2-ol], for which the IC50 is under 1 µM.

Regarding `CC(Nc1c(Cl)cnc2cc(F)c(-c3cnc(C4(O)CCS(=O)(=O)CC4)nc3)cc12)c1ccccc1F` (stereo not shown) [Example 289, 4-(5-(3-chloro-7-fluoro-4-((1-(2-fluorophenyl)ethyl)amino)quinolin-6-yl)pyrimidin-2-yl)-4-hydroxytetrahydro-2H-thiopyran 1,1-dioxide], the IC50 was under 1 µM.

Take `Cc1ccc(C)c(NCc2nc3ccc(-c4cnn(C)c4)cc3c(Nc3cc(C)ccc3C)c2Cl)c1` [Example 2, 3-chloro-N-(2,5-dimethylphenyl)-2-(((2,5-dimethylphenyl)amino)methyl)-6-(1-methyl-1H-pyrazol-4-yl)quinolin-4-amine]: the IC50 lay within 10 to 25 µM.

For `CC(Nc1c(Cl)cnc2cc(F)c(-c3cnc(C4(O)CCC(C(=O)O)CC4)nc3)cc12)c1ccccc1F` (stereo not shown) [Example 295, 4-(5-(3-chloro-7-fluoro-4-((1-(2-fluorophenyl)ethyl)amino)quinolin-6-yl)pyrimidin-2-yl)-4-hydroxycyclohexane-1-carboxylic acid], the IC50 was under 1 µM.

Turning to `C[C@@H](Nc1c(Cl)cnc2ccccc12)c1cc(-c2cccnc2N)ccc1F` [Example 512, (R)—N-(1-(5-(2-aminopyridin-3-yl)-2-fluorophenyl)ethyl)-3-chloroquinolin-4-amine], the IC50 fell in the range of 10 to 25 µM.

On to `CC(Nc1c(Cl)cnc2ccc(-c3cnc(N4CCNC(=O)C4)nc3)cc12)c1nc(C(N)=O)ccc1F` (single isomer, unassigned) [Example 25, 6-(1-((3-chloro-6-(2-(3-oxopiperazin-1-yl)pyrimidin-5-yl)quinolin-4-yl)amino)ethyl)-5-fluoropicolinamide], for which the IC50 lay in the range of 1 to 10 µM.

In the case of `CC(Nc1c(Cl)cnc2cc(F)c(-c3cnc(C#N)nc3)cc12)c1ccccc1F` (stereo not shown) [Example 255, 5-(3-chloro-7-fluoro-4-((1-(2-fluorophenyl)ethyl)amino)quinolin-6-yl)pyrimidine-2-carbonitrile], the IC50 lay within 1 to 10 µM.

For `COC(=O)c1ccc(F)c([C@@H](C)Nc2c(Cl)cnc3ccc(-c4cnc(C(C)(C)O)nc4)cc23)c1` [Example 415, Methyl (R)-3-(1-((3-chloro-6-(2-(2-hydroxypropan-2-yl)pyrimidin-5-yl)quinolin-4-yl)amino)ethyl)-4-fluorobenzoate], the IC50 was under 1 µM.

On to `Cc1nc2ccc(-c3cnc(C(C)(C)O)nc3)cc2c(N[C@H](C)c2cc(CCO)ccc2F)c1Cl` [Example 323, (R)-2-(5-(3-chloro-4-((1-(2-fluoro-5-(2-hydroxyethyl)phenyl)ethyl)amino)-2-methylquinolin-6-yl)pyrimidin-2-yl)propan-2-ol], for which the IC50 was under 1 µM.

Turning to `C[C@H](Nc1c(Cl)cnc2cc(F)c(-c3cnc(C(C)(C)O)nc3)nc12)c1ccccc1` [Example 208, (S)-2-(5-(7-chloro-3-fluoro-8-((1-phenylethyl)amino)-1,5-naphthyridin-2-yl)pyrimidin-2-yl)propan-2-ol], the IC50 was under 1 µM.

Take `CC(Nc1c(Cl)cnc2cc(F)c(-c3cnc(C(O)CN4CCOCC4)cn3)cc12)c1ccccc1F` (stereo not shown) [Example 276, 1-(5-(3-chloro-7-fluoro-4-((1-(2-fluorophenyl)ethyl)amino)quinolin-6-yl)pyrazin-2-yl)-2-morpholinoethan-1-ol]: the IC50 fell in the range of 1 to 10 µM.

Regarding `CCC(Nc1c(Cl)cnc2ccc(-c3cnc(C(C)(C)O)nc3)cc12)c1nc(C(N)=O)ccc1F` (stereo not shown) [Example 129, 6-(1-((3-chloro-6-(2-(2-hydroxypropan-2-yl)pyrimidin-5-yl)quinolin-4-yl)amino)propyl)-5-fluoropicolinamide], the half-inhibitory concentration (IC50) is under 1 µM.

Regarding `C[C@H](Nc1c(Cl)cnc2ccc(-c3cnc(C(C)(C)O)nc3)cc12)[C@H]1CCCN(S(C)(=O)=O)C1` [Example 563, 2-(5-(3-chloro-4-(((S)-1-((S)-1-(methylsulfonyl)piperidin-3-yl)ethyl)amino)quinolin-6-yl)pyrimidin-2-yl)propan-2-ol], the IC50 lay within 1 to 10 µM.

In the case of `C[C@@H](Nc1c(Cl)cnc2ccc(-c3ccc(C(C)(C)O)cc3)cc12)c1cnccn1` [Example 490, (R)-2-(4-(3-chloro-4-((1-(pyrazin-2-yl)ethyl)amino)quinolin-6-yl)phenyl)propan-2-ol], the concentration for half-maximal inhibition (IC50) was under 1 µM.

In the case of `C[C@@H](Nc1c(Cl)cnc2ccc(-c3cnc(C(C)(C)O)nc3)cc12)c1cc(-c2ncn[nH]2)ccc1F` [Example 414, (R)-2-(5-(3-chloro-4-((1-(2-fluoro-5-(1H-1,2,4-triazol-5-yl)phenyl)ethyl)amino)quinolin-6-yl)pyrimidin-2-yl)propan-2-ol], the IC50 was under 1 µM.

With `CCN1CCC[C@H]([C@H](C)Nc2c(Cl)cnc3ccc(-c4cnc(C(C)(C)O)nc4)cc23)C1` [Example 105, 2-(5-(3-chloro-4-(((S)-1-((S)-1-ethylpiperidin-3-yl)ethyl)amino)quinolin-6-yl)pyrimidin-2-yl)propan-2-ol], the IC50 is under 1 µM.

For `CC(Nc1c(Cl)cnc2ccc(-c3ccc(C(C)(C)O)cc3)cc12)c1cnn(C)c1` (racemic) [Example 197, 2-(4-(3-chloro-4-((1-(1-methyl-1H-pyrazol-4-yl)ethyl)amino)quinolin-6-yl)phenyl)propan-2-ol], the IC50 lay within 10 to 25 µM.

`C[C@@H](Nc1c(Cl)cnc2ccc(-c3cnc(C(C)(C)O)nc3)cc12)C1CCCCC1` [Example 58, (R)-2-(5-(3-chloro-4-((1-cyclohexylethyl)amino)quinolin-6-yl)pyrimidin-2-yl)propan-2-ol]: the IC50 is under 1 µM.

As to `C[C@@H](Nc1c(Cl)cnc2ccc(-c3cnc(C(C)(C)O)nc3)cc12)c1cc(C#Cc2ccccc2)ccc1F` [Example 411, (R)-2-(5-(3-chloro-4-((1-(2-fluoro-5-(phenylethynyl)phenyl)ethyl)amino)quinolin-6-yl)pyrimidin-2-yl)propan-2-ol], the IC50 was 1 to 10 µM.

Regarding `CC(Nc1c(Cl)cnc2ccc(-c3cnc(C(C)(C)O)nc3)cc12)[C@H]1CCCN(C(=O)OC(C)(C)C)C1` (mixture of isomers) [Example 60, (S)-tert-butyl 3-(1-((3-chloro-6-(2-(2-hydroxypropan-2-yl)pyrimidin-5-yl)quinolin-4-yl)amino)ethyl)piperidine-1-carboxylate], the IC50 lay within 1 to 10 µM.

Consider `CC(Nc1c(Cl)cnc2ccc(-c3cnc(C(C)(C)O)nc3)cc12)c1ccc(C(F)(F)F)cc1` (racemic) [Example 150, 2-(5-(3-chloro-4-((1-(4-(trifluoromethyl)phenyl)ethyl)amino)quinolin-6-yl)pyrimidin-2-yl)propan-2-ol], for which the IC50 was in the range of 10 to 25 µM.

With `CC(Nc1c(Cl)cnc2cc(F)c(-c3ccc(C4(CO)CC4)cc3)cc12)c1ccccc1F` (racemic) [Example 264, (1-(4-(3-chloro-7-fluoro-4-((1-(2-fluorophenyl)ethyl)amino)quinolin-6-yl)phenyl)cyclopropyl)methanol], the 50% inhibitory concentration (IC50) was under 1 µM.

In the case of `CNC(=O)c1ccc(F)c([C@@H](C)Nc2c(Cl)cnc3ccc(-c4cnc(C(C)(C)O)nc4)cc23)c1` [Example 416, (R)-3-(1-((3-chloro-6-(2-(2-hydroxypropan-2-yl)pyrimidin-5-yl)quinolin-4-yl)amino)ethyl)-4-fluoro-N-methylbenzamide], the half-inhibitory concentration (IC50) fell in the range of 1 to 10 µM.
